Source: US5659048A, “Chiral [[(2-bromoethyl)-amino]methyl]-2-nitro-1H-imidazol-1-ethanol and related compounds” (priority 1995, dated 1997)

What was measured:
[1] = Emesis Studies in beagle dogs; type: in vivo; conditions: dog, in vivo; IV, 10-minute infusion, 6-hour postdosing scoring; threshold dose at which 50% of animals exhibited emetic response; read-out: Emesis (Dogs) ED50
Protocol: (§1) Beagle dogs (approximately 10 kg body weight) were treated intravenously with a 10-minute infusion of 20 mL of the test compound prepared in sodium lactate buffer, pH 4.0. Dogs were scored over a 6-hour postdosing period for both the number of emetic episodes and the relative volume. Antiemetic therapy consisted of a 5-minute infusion of ondansetron, administered at a dose of 0.3 mg/kg 30 minutes prior to treatment with the nitroimidazole.

[2] = test system: SCC7 carcinoma; assay: Radiosensitizing efficacy in mice: tumor growth delay, SCC7 carcinoma; type: in vivo, B6 C3 F1 mice; conditions: IP at maximum tolerated dose every 12 hours, 30 min before 2.5 Gray, 8 fractions
Protocol: Tumor growth delay was assessed in B6 C3 F1 mice implanted IM with 5×10^5 SCC7 carcinoma tumor cells. On Days 10 through 13 post tumor implantation, mice were treated every 12 hours with the maximum tolerated dose of test agent (determined from a 10-day multiple treatment schedule). Thirty minutes later, mice were irradiated at the tumor site with a 2.5 Gray dose of x-rays. Upon completion of this 8 fraction protocol, tumor growth was monitored daily.

[3] = test system: B6 C3 F1 mice; assay: Mouse Toxicity Studies (14-day lethality, LD10 by probit analysis); type: in vivo
Protocol: B6 C3 F1 mice were treated with varying doses of test agent by either intraperitoneal, intravenous, or oral administration. […] The maximum tolerated dose was established as the dose equal to or less than the LD10 as determined from a probit analysis.

[4] = test system: KHT fibrosarcoma; assay: Radiosensitizing efficacy in mice: excision assay, clonogenic survival of KHT fibrosarcomas; type: in vivo, B6 C3 F1 mice; conditions: 250 mg/kg IP, 30 min before 10 Gray whole body irradiation
Protocol: Clonogenic survival of KHT fibrosarcomas was determined in assays employing B6 C3 F1 mice. Tumors were implanted subcutaneously by trocar. Nine days postimplantation, when tumors ranged from 200 to 400 mg in size, mice were treated IP with a range of drug doses including the maximum tolerated dose of the test agent. Thirty minutes later mice received whole body irradiation at a dose of 10 Gray, delivered at a rate of 2 Gray/minute with a 320 kV x-ray machine. Twenty-four hours after treatment, animals were sacrificed, and tumors were excised. Tumors were enzymatically digested to give single cell suspensions prior to plating for cell survival by clonogenic assay.

[5] = test system: beagle dogs; assay: Emesis Studies in beagle dogs; type: in vivo; conditions: dogs, IV; result in words
Protocol: as §1

| SMILES | TD50 at 6 h [1] [mg/kg] | Growth Delay Fold Enhancement [2] [Fold] | LD10 ([3]; IP) [mg/kg] | LD10 ([3]; IV) [mg/kg] | LD10 ([3]; PO) [mg/kg] | Excision (250 mg/kg), % control [4] [% control] | Emesis relative to (S) isomer or racemic mixture [5] |
| --- | --- | --- | --- | --- | --- | --- | --- |
| Br.O=[N+]([O-])c1nccn1C[C@@H](O)CNCCBr [(S), (S)-(-)-α-[[(2-Bromoethyl)amino]methyl]-2-nitro-1H-imidazole-1-ethanol, monohydrobromide] | 4 | 1.8 | 850 | 900 | 1100 | 11 | – |
| Br.O=[N+]([O-])c1nccn1C[C@H](O)CNCCBr [(R), (R)-(+)-α-[[(2-Bromoethyl)amino]methyl]-2-nitro-1H-imidazole-1-ethanol, monohydrobromide] | 12 | 2.1 | 850 | 900 | 1100 | 11 | significantly less emesis than the (S) isomer or the mixture |
